According to ChEMBL document CHEMBL1130406, “Ortho-substituted benzofused macrocyclic lactams as zinc metalloprotease inhibitors” (J Med Chem, 1997):

Legend:
Neprilysin = Neprilysin (Homo sapiens, UniProt P08473); test: Inhibition of neutral endopeptidase
Thermolysin = biological target: T1, Thermolysin (Bacillus thermoproteolyticus, UniProt P00800); test: Inhibitory concentration required to inhibit thermolysin
T1 sequence (P00800 whole entry): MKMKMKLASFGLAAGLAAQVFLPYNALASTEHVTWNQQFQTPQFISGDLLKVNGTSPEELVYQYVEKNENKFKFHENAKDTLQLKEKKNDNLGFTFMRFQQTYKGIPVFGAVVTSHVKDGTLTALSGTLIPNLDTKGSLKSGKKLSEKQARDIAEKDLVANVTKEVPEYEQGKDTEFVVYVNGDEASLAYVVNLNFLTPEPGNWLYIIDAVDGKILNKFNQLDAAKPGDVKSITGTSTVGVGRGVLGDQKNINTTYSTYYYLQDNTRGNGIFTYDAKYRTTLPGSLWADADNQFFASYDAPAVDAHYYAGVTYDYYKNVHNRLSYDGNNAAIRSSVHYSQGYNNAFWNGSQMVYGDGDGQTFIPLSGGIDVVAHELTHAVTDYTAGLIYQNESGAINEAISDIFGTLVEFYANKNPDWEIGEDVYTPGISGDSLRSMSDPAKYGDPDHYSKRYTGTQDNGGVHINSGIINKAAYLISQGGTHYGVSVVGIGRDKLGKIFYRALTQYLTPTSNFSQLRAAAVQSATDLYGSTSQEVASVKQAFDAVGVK

Sequence of Neprilysin (P08473 whole entry): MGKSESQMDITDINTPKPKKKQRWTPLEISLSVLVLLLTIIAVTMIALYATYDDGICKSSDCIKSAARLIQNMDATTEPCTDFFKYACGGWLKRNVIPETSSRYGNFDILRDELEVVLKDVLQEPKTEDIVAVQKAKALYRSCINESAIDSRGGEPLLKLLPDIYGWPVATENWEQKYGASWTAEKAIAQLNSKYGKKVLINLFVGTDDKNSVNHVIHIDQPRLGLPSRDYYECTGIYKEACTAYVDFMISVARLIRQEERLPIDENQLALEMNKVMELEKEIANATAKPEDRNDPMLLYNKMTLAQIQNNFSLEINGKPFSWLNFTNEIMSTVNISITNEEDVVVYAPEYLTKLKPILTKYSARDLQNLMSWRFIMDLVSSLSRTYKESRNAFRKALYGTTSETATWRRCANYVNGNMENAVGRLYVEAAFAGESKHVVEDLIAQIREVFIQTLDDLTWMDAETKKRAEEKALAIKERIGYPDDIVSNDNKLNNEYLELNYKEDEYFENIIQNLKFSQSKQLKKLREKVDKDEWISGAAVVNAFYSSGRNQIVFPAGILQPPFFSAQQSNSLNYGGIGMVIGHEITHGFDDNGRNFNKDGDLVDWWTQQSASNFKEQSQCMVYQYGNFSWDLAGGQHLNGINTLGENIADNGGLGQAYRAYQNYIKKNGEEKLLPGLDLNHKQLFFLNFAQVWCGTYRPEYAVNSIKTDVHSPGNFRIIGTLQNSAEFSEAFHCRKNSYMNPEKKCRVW

| IC50 (Neprilysin) | IC50 (Thermolysin) | SMILES |
| --- | --- | --- |
| 67 nM | 40000 nM | O=C1N[C@H](C(=O)O)Cc2ccccc2CCCCCC[C@@H]1CS |
| 0.9 nM | 68 nM | O=C1N[C@H](C(=O)O)CCCCc2ccccc2C[C@@H]1CS |
| 7 nM | 2300 nM | O=C1N[C@H](C(=O)O)CCCCc2ccccc2C[C@H]1CS |
| 4 nM | 4000 nM | O=C1N[C@H](C(=O)O)CCCCCc2ccccc2C[C@H]1CS |

The remaining lines, values behind:

| SMILES | IC50 (Neprilysin) | IC50 (Thermolysin) |
| --- | --- | --- |
| O=C1N[C@H](C(=O)O)CCCCCCc2ccccc2C[C@H]1CS | 27 nM | 1800 nM |
| O=C1N[C@@H](C(=O)O)Cc2ccccc2CCCCC[C@@H]1CS | 99 nM | 49000 nM |
| O=C1N[C@@H](C(=O)O)Cc2ccccc2CCCCCC[C@@H]1CS | 136 nM | 16000 nM |
| O=C1N[C@H](C(=O)O)CCCCCCc2ccccc2C[C@@H]1CS | 224 nM | 41000 nM |
| O=C1N[C@H](C(=O)O)CCCCCc2ccccc2C[C@@H]1CS | 3 nM | 600 nM |
| O=C1N[C@@H](C(=O)O)Cc2ccccc2CCCCCCC[C@@H]1CS | > 10000 nM | 60000 nM |
| O=C1N[C@H](C(=O)O)Cc2ccccc2CCCCCCC[C@@H]1CS | 900 nM | – |
| O=C(O)CNC(=O)C(CS)Cc1ccccc1 (configuration not stated) [THIORPHAN] | – | 9500 nM |
